Results from patent US10961222B2, “Chemical compound of isocitrate dehydrogenase inhibitor, and application thereof” (NANJING SANHOME PHARMACEUTICAL CO., LTD., priority 2016, dated 2021).

Biological target: T1, IDH2-R140Q mutant enzyme (Homo sapiens, UniProt P48735, R140Q)
T1 construct: purchased BPS 71100-1
T1 sequence (P48735 40-452 R140Q): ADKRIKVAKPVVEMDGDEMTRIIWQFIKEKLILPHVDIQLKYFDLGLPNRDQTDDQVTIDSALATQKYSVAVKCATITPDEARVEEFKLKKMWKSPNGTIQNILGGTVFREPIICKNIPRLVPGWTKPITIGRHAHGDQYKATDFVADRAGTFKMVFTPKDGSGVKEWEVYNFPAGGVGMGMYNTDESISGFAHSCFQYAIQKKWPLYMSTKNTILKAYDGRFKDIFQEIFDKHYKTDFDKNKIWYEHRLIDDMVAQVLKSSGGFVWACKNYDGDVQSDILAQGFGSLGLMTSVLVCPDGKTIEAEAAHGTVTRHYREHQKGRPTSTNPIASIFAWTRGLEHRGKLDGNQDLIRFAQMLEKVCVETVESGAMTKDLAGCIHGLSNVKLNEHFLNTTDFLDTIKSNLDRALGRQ
Experiment: Inhibitory activity of compounds on IDH2-R140Q enzyme in vitro (diaphorase/resazurin fluorescence)
Assay type: biochemical
Details: IDH2-R140Q, pre-incubated 16 h with enzyme and NADPH, reaction 1 h with α-ketoglutarate; read-out: R140Q IC50
Method: Instrument: SpectraMax M3 Multi-Mode Microplate Reader, purchased from Molecular Devices.
In a 96-well plate, 40 μL of reaction buffer containing 2× enzyme (IDH2-WT or IDH2-R140Q) and cofactor (NADP or NADPH) was added to each well of the compound group and the DMSO control group, and 40 μL of reaction buffer containing 2× cofactor (NADP or NADPH) was added to each well of the enzyme-free control group.
20 μL of reaction buffer containing 4× compound to be tested was added to each well of the compound group. The compound was pre-formulated into 200× mother liquor with 100% DMSO; in the final reaction system, the concentration of DMSO was 0.5%. 20 μL of reaction buffer containing DMSO was added to each well of the DMSO control group; in the final reaction system, the concentration of DMSO was 0.5%.
The compound was mixed well with the enzyme and cofactor, and pre-incubated at room temperature for 16 h;
20 μL of reaction buffer containing 4× reaction substrate was added to each well. After mixed uniformly, the mixture was reacted at room temperature for 1 h.
3× termination and detection solution (it was prepared with reaction buffer, the final concentration of Diaphorase was 0.015 mg/mL, and the final concentration of Resazurin was 0.03 mM) was prepared. 40 μL of 3× termination and detection solution was added to each well of the enzyme reaction system. After mixed uniformly, the mixture was incubated at room temperature for 10 min;
Fluorescence values of two wells were obtained and averaged and the activity rate (Activity %) was calculated. The calculation formula: Activity %=(Measured data−Subtract background)/(DMSO Control−Subtract background)×100, wherein “Measured data” is fluorescence value of the compound in the pre-incubated wells, “Subtract background” is the fluorescence value of the enzyme-free control wells, and “DMSO Control” is the fluorescence value in the DMSO pre-incubated wells. Data was processed by GraphPad Prism v5.0 software and fitted to obtain IC50.

IC50	Compound
18 nM	FC1(F)CCN(c2nc(Nc3ccnc(C(F)(F)F)c3)nc(-c3cccc(C(F)(F)F)n3)n2)C1 [Example 15, 4-(3,3-Difluoropyrrolidin-1-yl)-6-(6-(trifluoromethyl)pyridin-2-yl)-N-(2-(trifluoromethyl)pyridin-4-yl)-1,3,5-triazin-2-amine]
21 nM	FC1(F)CCC(c2nc(Nc3ccnc(C(F)(F)F)c3)nc(-c3cccc(C(F)(F)F)n3)n2)CC1 [Example 26, 4-(4,4-Difluorocyclohexyl)-6-(6-(trifluoromethyl)pyridin-2-yl)-N-(2-(trifluoromethyl)pyridin-4-yl)-1,3,5-triazin-2-amine]
22 nM	FC(F)(F)c1cc(Nc2nc(-c3cccc(C(F)(F)F)n3)nc(N3CCCCC3)n2)ccn1 [Example 50, 4-(piperidin-1-yl)-6-(6-(trifluoromethyl)pyridin-2-yl)-N-(2-(trifluoromethyl)pyridin-4-yl)-1,3,5-triazin-2-amine]
15 nM	FC1(F)CC=C(c2nc(Nc3ccnc(C(F)(F)F)c3)nc(-c3cccc(C(F)(F)F)n3)n2)CC1 [Example 25, 4-(4,4-Difluorocyclohexyl-1-en-1-yl)-6-(6-(trifluoromethyl)pyridin-2-yl)-N-(2-(trifluoromethyl)pyridin-4-yl)-1,3,5-triazin-2-amine]
14 nM	FC1CCCN(c2nc(Nc3ccnc(C(F)(F)F)c3)nc(-c3cccc(C(F)(F)F)n3)n2)C1 (stereo not drawn) [Example 11, 4-(3-Fluoropiperidin-1-yl)-6-(6-(trifluoromethyl)pyridin-2-yl)-N-(2-(trifluoromethyl)pyridin-4-yl)-1,3,5-triazin-2-amine]
20 nM	FC(F)(F)c1cc(Nc2nc(-c3cccc(C(F)(F)F)n3)nc(N3CCCC(C(F)(F)F)C3)n2)ccn1 (stereo not drawn) [Example 7, 4-(3-(Trifluoromethyl)piperidin-1-yl)-6-(6-(trifluoromethyl)pyridin-2-yl)-N-(2-(trifluoromethyl)pyridin-4-yl)-1,3,5-triazin-2-amine]
25 nM	OC1(C(F)(F)F)CCN(c2nc(Nc3ccnc(C(F)(F)F)c3)nc(-c3cccc(C(F)(F)F)n3)n2)CC1 [Example 21, 4-(4-Trifluoromethyl-4-hydroxypiperidin-1-yl)-6-(6-(trifluoromethyl)pyridin-2-yl)-N-(2-(trifluoromethyl)pyridin-4-yl)-1,3,5-triazin-2-amine]
15 nM	FC(F)(F)c1cc(Nc2nc(-c3cccc(C(F)(F)F)n3)nc(C3CCCCN3)n2)ccn1 (stereo not drawn) [Example 13, 4-(Piperidin-2-yl)-6-(6-(trifluoromethyl)pyridin-2-yl)-N-(2-(trifluoromethyl)pyridin-4-yl)-1,3,5-triazin-2-amine]
25 nM	FC(F)(F)c1cc(Nc2nc(-c3cccc(C(F)(F)F)n3)nc(N3CCNCC3)n2)ccn1 [Example 5, 4-(Piperazin-1-yl)-6-(6-(trifluoromethyl)pyridin-2-yl)-N-(2-(trifluoromethyl)pyridin-4-yl)-1,3,5-triazin-2-amine]
25 nM	N#CC1CCCN(c2nc(Nc3ccnc(C(F)(F)F)c3)nc(-c3cccc(C(F)(F)F)n3)n2)C1 (stereo not drawn) [Example 12, 4-(3-Cyanopiperidin-1-yl)-6-(6-(trifluoromethyl)pyridin-2-yl)-N-(2-(trifluoromethyl)pyridin-4-yl)-1,3,5-triazin-2-amine]
23 nM	O[C@@H]1CCN(c2nc(Nc3ccnc(C(F)(F)F)c3)nc(-c3cccc(C(F)(F)F)n3)n2)C1 [Example 17, 4-((R)-3-hydroxypyrrolidin-1-yl)-6-(6-(trifluoromethyl)pyridin-2-yl)-N-(2-(trifluoromethyl)pyridin-4-yl)-1,3,5-triazin-2-amine]
14 nM	FC1CCN(c2nc(Nc3ccnc(C(F)(F)F)c3)nc(-c3cccc(C(F)(F)F)n3)n2)CC1 [Example 19, 4-(4-Fluoropiperidin-1-yl)-6-(6-(trifluoromethyl)pyridin-2-yl)-N-(2-(trifluoromethyl)pyridin-4-yl)-1,3,5-triazin-2-amine]
23 nM	N#C[C@@H]1CCN(c2nc(Nc3ccnc(C(F)(F)F)c3)nc(-c3cccc(C(F)(F)F)n3)n2)C1 [Example 52, 4-((R)-3-cyanopyrrolidin-1-yl)-6-(6-(trifluoromethyl)pyridin-2-yl)-N-(2-(trifluoromethyl)pyridin-4-yl)-1,3,5-triazin-2-amine]
18 nM	O=S1(=O)CCN(c2nc(Nc3ccnc(C(F)(F)F)c3)nc(-c3cccc(C(F)(F)F)n3)n2)CN1 [Example 8]
22 nM	OC1CCCN(c2nc(Nc3ccnc(C(F)(F)F)c3)nc(-c3cccc(C(F)(F)F)n3)n2)C1 (stereo in doubt) [Example 9, 4-((R)-3-hydroxypiperidin-1-yl)-6-(6-(trifluoromethyl)pyridin-2-yl)-N-(2-(trifluoromethyl)pyridin-4-yl)-1,3,5-triazin-2-amine]
26 nM	O[C@H]1CCN(c2nc(Nc3ccnc(C(F)(F)F)c3)nc(-c3cccc(C(F)(F)F)n3)n2)C1 [Example 18, 4-((S)-3-hydroxypyrrolidin-1-yl)-6-(6-(trifluoromethyl)pyridin-2-yl)-N-(2-(trifluoromethyl)pyridin-4-yl)-1,3,5-triazin-2-amine]
19 nM	O[C@H]1CCCN(c2nc(Nc3ccnc(C(F)(F)F)c3)nc(-c3cccc(C(F)(F)F)n3)n2)C1 [Example 10, 4-((S)-3-hydroxypiperidin-1-yl)-6-(6-(trifluoromethyl)pyridin-2-yl)-N-(2-(trifluoromethyl)pyridin-4-yl)-1,3,5-triazin-2-amine]
19 nM	CC(C)(O)C1CN(c2nc(Nc3ccnc(C(F)(F)F)c3)nc(-c3cccc(C(F)(F)F)n3)n2)C1 [Example 48, 4-(3-(2-propyl-2-ol)azetidin-1-yl)-6-(6-(trifluoromethyl)pyridin-2-yl)-N-(2-(trifluoromethyl)pyridin-4-yl)-1,3,5-triazin-2-amine]
